# Values quoted from earlier work, collected in article PMC4629110 (Acta Pharmaceutica Sinica. B, 2014).
# pIC50: −log10 of the molar value.
# System: BuChE
# Settings: read-out: IC50 BuChE reported in the literature
structure (smiles),measurement,value
"CC(C)NP(=O)(NC(C)C)OP(=O)(NC(C)C)NC(C)C [ISO-OMPA, tetraisopropyl pyrophosphoramide]",pIC50,6.01
